Data reported in US20240418723A1, “SEQUENTIAL TREATMENTS AND BIOMARKERS TO REVERSE RESISTANCE TO KINASE INHIBITORS” (Queen Mary University of London, priority 2021, published 2024).

Test system: AML cell lines
Assay: Small-scale drug screens: epigenetic antagonist 5 days followed by kinase inhibitor 3 days, cell viability/proliferation, CDI
Assay type: cell-based
Experimental: The Bliss independence model was used to derive coefficients of drug interaction (CDI) values, where CDI <1 indicates significant priming by the […] (synergistic effect).
For the proliferation/viability assays, cells were seeded in T75 flasks (0.5×10^6 cells/mL of RPMI/FBS medium) and exposed for 5 days to either vehicle or epigenetic modifier. Unless otherwise specified, the final concentration for GSK2879552 (LSD1i), […] (EZH2i), pinometostat (DOT1Li) and ATRA was 1 μM while for decitabine (DNMTAi) and vorinostat (HDACi) was 100 nM; all epigenetic inhibitors were diluted in DMSO, while ATRA was diluted in Et-OH. Vehicle concentration was kept at 0.1%. […] The final concentration of DMSO was kept at 0.1%. Finally, cells were transferred to 96-well plates (100 μL per well in 3 technical replicates per condition) and cell viability and proliferation were assessed using Guava and ApoTox-Glo Triplex analyses, as indicated below.
For Guava analysis, cells were stained with Guava ViaCount reagent (Luminex #4000-0040) in 96-well plates, by mixing 150 μL of cell suspension with 75 μL of reagent, and left to incubate for a minimum of 10 minutes in the dark, after which they were processed through a Guava easyCyte flow cytometer (Luminex #0500-5005). Flow cytometry data were analysed using CytoSoft (v2.5.7). […]

Q: For `O=C(O)c1ccc(CN2CCC(CN[C@@H]3C[C@H]3c3ccccc3)CC2)cc1` [GSK2879552], which “number of AML cell lines sensitised to midostaurin, pictilisib or trametinib” value (LSD1i pre-treatment, out of the 12 AML cell lines tested (FIG. 2D)) is on record?
A: The value was 9.

Q: What about the “-Log2 CDI (coefficient of drug interaction), sensitisation to kinase inhibitor treatment” value (epigenetic antagonist 5 days, then MEK, mTOR or PKC inhibitor 3 days, cell viability, Bliss independence, CDI <1 = synergistic (FIG. 2C)) of the same compound?
A: Its value is “one of the most potent sensitisers to kinase inhibitor treatment”.
